Source: ChEMBL document CHEMBL1136945, “Antimalarial activity of thiosemicarbazones and purine derived nitriles” (Bioorg Med Chem Lett, 2009)

Assays:
Format in all cases: functional, organism-based
Plasmodium falciparum [1] = assay: (§1) Antimalarial activity as reduced parasitaemia after 72 hrs against chloroquine-resistant Plasmodium falciparum K1 infected human O+ erythrocytes by DNA stain without pepstatin; settings: K1, 72 h
Plasmodium falciparum [2] = assay: Antimalarial activity as reduced parasitaemia after 72 hrs against chloroquine-sensitive Plasmodium falciparum 3D7 infected human O+ erythrocytes by DNA stain without pepstatin; settings: 3D7, 72 h
Plasmodium falciparum [3] = assay: as §1; settings: K1, 72 h; remark: listed apart in the source
Plasmodium falciparum [4] = assay: Antimalarial activity as reduced parasitaemia after 72 hrs against chloroquine-sensitive Plasmodium falciparum 3D7 infected human O+ erythrocytes by DNA stain with pepstatin; settings: 3D7, 72 h

Row | Compound | EC50 (Plasmodium falciparum [1]) | EC50 (Plasmodium falciparum [2]) | EC50 (Plasmodium falciparum [3]) | EC50 (Plasmodium falciparum [4])
1 | CCCC/C(=N\NC(N)=S)c1ccc(Cl)c(Cl)c1 | > 30 µM | > 30 µM | > 30 µM | > 30 µM
2 | Cc1ccc(/C(=N/NC(N)=S)c2ccccc2)cc1 | > 30 µM | > 30 µM | > 30 µM | > 30 µM
3 | Cc1ccc(/C(=N/NC(N)=S)c2cccc(C(F)(F)F)c2)cc1 | > 30 µM | > 30 µM | > 30 µM | 30 µM
4 | N#Cc1nc(NCc2ccc(-c3ccco3)cc2)c2ncn(CCCO)c2n1 | 12 µM | 18 µM | 13 µM | 12 µM
5 | Cc1cccc(/C(=N/NC(N)=S)c2cccc(F)c2)c1 | > 30 µM | > 30 µM | > 30 µM | > 30 µM
6 | N#Cc1nc(NCc2ccc(-c3cccnc3)cc2)c2ncn(CCCO)c2n1 | > 30 µM | > 30 µM | > 30 µM | > 30 µM
7 | Cc1ccc(/C(=N/NC(N)=S)c2cc(Cl)cc(Cl)c2)cc1 | > 30 µM | > 30 µM | > 30 µM | 30 µM
8 | COC(=O)c1cccc(-c2cccc(CNc3nc(C#N)nc4c3ncn4CCCO)c2)c1 | > 30 µM | > 30 µM | > 30 µM | > 30 µM
9 | NC(=S)N/N=C(\c1cc(Cl)cc(Cl)c1)c1cccs1 | > 30 µM | > 30 µM | > 30 µM | 30 µM
10 | CC(=O)Nc1cccc(CNc2nc(C#N)nc3c2ncn3CCCO)c1 | 11 µM | 15 µM | 15 µM | 6 µM
11 | C=Cc1cccc(-c2cccc(CNc3nc(C#N)nc4c3ncn4CCCO)c2)c1 | > 30 µM | > 30 µM | > 30 µM | > 30 µM
12 | C=Cc1ccc(-c2cccc(CNc3nc(C#N)nc4c3ncn4CCCO)c2)cc1 | > 30 µM | > 30 µM | > 30 µM | > 30 µM
13 | N#Cc1nc(NCc2cccc(-c3ccc4ccccc4c3)c2)c2ncn(CCCO)c2n1 | > 30 µM | > 30 µM | > 30 µM | 30 µM
14 | N#Cc1nc(NCc2cccc(-c3ccco3)c2)c2ncn(CCCO)c2n1 | > 30 µM | > 30 µM | > 30 µM | > 30 µM
15 | N#Cc1nc(NCc2cccc(-c3ccsc3)c2)c2ncn(CCCO)c2n1 | > 30 µM | > 30 µM | > 30 µM | > 30 µM
16 | N#Cc1nc(NCc2cccc(-c3ccoc3)c2)c2ncn(CCCO)c2n1 | > 30 µM | > 30 µM | > 30 µM | > 30 µM
17 | CC(C)Oc1c(Br)cccc1-c1cccc(CNc2nc(C#N)nc3c2ncn3CCCO)c1 | > 30 µM | 30 µM | > 30 µM | 30 µM
18 | COc1cc(OC)c(-c2cccc(CNc3nc(C#N)nc4c3ncn4CCCO)c2)cn1 | > 30 µM | > 30 µM | > 30 µM | > 30 µM
19 | N#Cc1nc(NCc2ccc(-c3cccc(Cl)c3)cc2)c2ncn(CCCO)c2n1 | 18 µM | 20 µM | 20 µM | 14 µM
20 | N#Cc1nc(NCc2ccc(Cl)c(Cl)c2)c2c(n1)N(Cc1cccc(C(F)(F)F)c1)CN2 | 24 µM | 27 µM | 30 µM | 30 µM
21 | COc1ccc(-c2cccc(CNc3nc(C#N)nc4c3ncn4CCCO)c2)cc1 | > 30 µM | > 30 µM | > 30 µM | > 30 µM
22 | N#Cc1nc(NCc2cccc(-c3ccccc3)c2)c2ncn(CCCO)c2n1 | > 30 µM | > 30 µM | > 30 µM | 30 µM
23 | N#Cc1nc(NCc2cccc(-c3cccnc3)c2)c2ncn(CCCO)c2n1 | > 30 µM | > 30 µM | > 30 µM | > 30 µM
24 | N#Cc1nc(NCc2cccc(-c3cccs3)c2)c2ncn(CCCO)c2n1 | > 30 µM | > 30 µM | > 30 µM | > 30 µM
25 | N#Cc1nc(NCc2cccc(-c3cc4ccccc4n3S(=O)(=O)c3ccccc3)c2)c2ncn(CCCO)c2n1 | 30 µM | > 30 µM | > 30 µM | 30 µM
26 | N#Cc1nc(NCc2cccc(-c3cn(S(=O)(=O)c4ccccc4)c4ccccc34)c2)c2ncn(CCCO)c2n1 | 30 µM | > 30 µM | > 30 µM | 30 µM
27 | N#Cc1nc(NCc2cccc(-c3ccc4cc[nH]c4c3)c2)c2ncn(CCCO)c2n1 | > 30 µM | > 30 µM | > 30 µM | > 30 µM
